Where two headings read alike, the source gives them in different places. Some results are limits rather than exact numbers.

Test [1] concerns HSV-2 Strain G in Vero or MRCS cells. As to the kind of experiment: Viral qPCR assay, HSV-2. Format: cell-based. The following applies: read-out: HSV2 Cell (EC50), values marked *. As for the experimental part: (§1) MRCS and Vero cells were obtained from ATCC and were maintained at 37° C./5% CO2/90% relative humidity in Minimal Essential Medium with 10% fetal bovine serum, […], 100 units/mL penicillin and 100 ug/mL streptomycin. Assay plates were prepared by dispensing compounds dissolved in DMSO into wells of 384 well collagen-coated plates using an ECHO acoustic dispenser. Each test compound was tested in a 10-point, serial 3-fold dilution. Controls included uninfected cells and infected cells treated only with DMSO. Assays were initiated by mixing selected cells, in suspension, with virus, and dispensing 50 μl/well infected cells to pre-plated compounds. Plates were incubated at 37° C./5% CO2/90% relative humidity for ˜72 hours to permit genomic replication, and infected cells were lysed by the addition of an equal volume of lysis buffer (10 mM Tris-HCl, pH8, 50 mM KCl, 2 mM MgCl2, 0.45% NP-40, 0.45% Tween-20, and 100 μg/mL proteinase K). An aliquot of the lysate was then transferred to a 384-well PCR plate and incubated at 56° C. for 1 hour, and then at 95° C. for 10 minutes. Levels of a viral gene were measured in 10 ul qPCR assays using TaqMan® Gene Expression Master Mix (Applied Biosystems) and an 7900HT Fast Real-Time PCR System with 384-Well Block Module. 7-point, serial 10-fold dilutions of a plasmid standard were run on each plate to generate a standard curve, and genome copies numbers were calculated by plotting experimental Ct onto linear regression of the standard curve. Compound effects on viral genome copy number were normalized to the window defined by the controls. Calculated % effects were fit using a 4-parameter algorithm, and EC50 was reported.
(§2) HCMV: Strain AD169 was assayed in MRC-5 cells and was used at 0.05-0.1 pfu/cell. The assays were performed in either growth media or in the same media with 50% fetal bovine serum. Primer-probe set was Thermo Fisher Assay ID=AIFATFK. HSV-1: Strain F was assayed in Vero or MRCS cells and was used at 0.0005-0.004 pfu/cell in growth medium. Primer-probe set was Thermo Fisher Assay ID=AIBJZIB. HSV-2: Strain G was assayed in Vero or MRCS cells and was used at 0.004-0.4 pfu/cell in growth medium. Primer-probe set was Thermo Fisher Assay ID=AICSXOJ.

Test [2] deals with HCMV Strain AD169 in MRC-5 cells. As to the kind of experiment: CMV cell assay. Type of test: cell-based. The procedure: as §1, §2
In test [3] the test system is HSV-1 Strain F in Vero or MRCS cells. As to the kind of experiment: Viral qPCR assay, HSV-1. To be noted: read-out: HSV1 Cell (EC50), values marked *. Type of test: cell-based. As for the experimental part: as §1, §2
The target of test [4] is T1, Human cytomegalovirus DNA polymerase (Human cytomegalovirus, UniProt P08546).
T1 construct: made in house; host or cells: SF21 insect cells (baculovirus vector)
As to the kind of experiment: CMV polymerase assay (AlphaLISA). The following applies: polymerase assay of Example 27, HCMV polymerase 0.2 nM. Type of test: biochemical. The procedure: (§3) CMV and VZV Polymerase Assays
(§4) Human cytomegalovirus and varicella zoster virus DNA polymerases were expressed via baculovirus vector in SF21 cells and purified. Heterodimeric nucleic acid substrate used in the herpesvirus polymerase reactions were generated by annealing a 59-mer template to a 17-mer digoxigenin-labeled primer. Polymerase (HCMV final concentration of 0.2 nM; VZV final concentration of 0.4 nM) was combined with an inhibitor compound or DMSO in assay buffer (10 mM HEPES, pH 7.5, 25 mM KCl, 25 mM NaCl, 5 mM MgCl2, 5% glycerol, 0.67 mg/mL bovine serum albumin, and 1 mM tris(2-carboxyethyl)phosphine)), and this mixture was pre-incubated for 30 minutes at room temperature in 384-well microtiter plates. The polymerization reaction was initiated by the addition of template/primer substrate (final concentration: 1.6 nM) and dNTPs (final concentration: 24 nM dCTP, 24 nMdGTP, 16 nM dATP, 16 nM dTTP, and 0.8 nM biotin-dUTP). After a 60 minute incubation period at 37° C., the reactions were terminated using quench buffer (25 mM HEPES pH 7.5, 100 mM NaCl, 0.25% Tween-20, 12 mM EDTA, and 1 mg/mL bovine serum albumin). Incorporation of biotinylated UTP was detected with 2.5-5 μg/mL anti-DIG AlphaLISA acceptor beads and 5-10 μg/mL streptavidin AlphaLISA donor beads (PerkinElmer). Compound effects were normalized to the window defined by the controls (DMSO only and pre-quenched wells) and were fit using a 4-parameter algorithm to report an IC50.
(Alpha assays give light when donor and acceptor beads are brought close together.)

Test [5] has as its target T2, varicella zoster virus DNA polymerase (Varicella-zoster virus, UniProt P09252).
T2 construct: made in house; host or cells: SF21 insect cells (baculovirus vector)
As to the kind of experiment: VZV polymerase assay (AlphaLISA). Format: biochemical. To be noted: polymerase assay of Example 27, VZV polymerase 0.4 nM. The procedure: as §3, §4

Test [6] has as its system HSV-1, strain F in Vero cells. As to the kind of experiment: HSV CPE assay, HSV-1. Format: cell-based. The following applies: Human alphaherpesvirus 1, 120 h; unstarred values: CPE assay of Example 25, Vero cells, 5 days; read-out: HSV1 Cell^b (EC50). The procedure:
(§5) Vero cells were maintained at 37° C./5% CO2/90% relative humidity in Dulbecco's Modified Eagle's Medium with 10% fetal bovine serum, […], 100 units/mL penicillin and 100 ug/mL streptomycin. For this assay, Vero cells (maintained at 37° C./5% CO2/90% relative humidity in Dulbecco's Modified Eagle's Medium with 10% fetal bovine serum, […], 100 units/mL penicillin and 100 μg/mL streptomycin) were seeded in 96-well microtiter plates and incubated for about 15 hours. They were then infected with HSV-1, strain F, or with HSV-2, strain G, at a multiplicity of infection known to result in 85-95% loss of cell viability during the assays, in the same media with 2% fetal bovine serum. Test compounds were dissolved in DMSO, and 6 point serial 10-fold dilutions in DMSO were prepared. Test compounds were added to infected cells, and the plates were incubated at 37° C./5% CO2/90% relative humidity for 5 days. Each plate contains cell control wells (cells only), virus control wells (cells plus virus), drug colorimetric control wells (drug only), background control wells (media only) and experimental wells (drug plus cells plus virus). Cytoprotection was assessed by the addition of Celltiter®96 Reagent (Promega, Madison, Wis.), according to manufacturer's recommendations. % cytopathic effect (CPE) reduction was calculated and IC50 (concentration inhibition virus replication by 50%) was reported.

Test [7] has as its system HSV-2, strain G in Vero cells. As to the kind of experiment: HSV CPE assay, HSV-2. Format: cell-based. To be noted: Human alphaherpesvirus 2, 120 h; unstarred values: CPE assay of Example 25, Vero cells, 5 days; read-out: HSV2 Cell^b CPE(EC50). The procedure: as §5
Setting [8] is: Human alphaherpesvirus 2, starred values: viral qPCR assay of Example 26, ~72 hours, Vero or MRCS cells.
Setting [9] is: Human betaherpesvirus 5, AD169, MRC5, footnote b: assay described in Example 25, read-out: CMV Cell^b (EC50).
Setting [10] is: Human alphaherpesvirus 1, starred values: viral qPCR assay of Example 26, ~72 hours, Vero or MRCS cells.

T1 sequence (P08546 whole entry): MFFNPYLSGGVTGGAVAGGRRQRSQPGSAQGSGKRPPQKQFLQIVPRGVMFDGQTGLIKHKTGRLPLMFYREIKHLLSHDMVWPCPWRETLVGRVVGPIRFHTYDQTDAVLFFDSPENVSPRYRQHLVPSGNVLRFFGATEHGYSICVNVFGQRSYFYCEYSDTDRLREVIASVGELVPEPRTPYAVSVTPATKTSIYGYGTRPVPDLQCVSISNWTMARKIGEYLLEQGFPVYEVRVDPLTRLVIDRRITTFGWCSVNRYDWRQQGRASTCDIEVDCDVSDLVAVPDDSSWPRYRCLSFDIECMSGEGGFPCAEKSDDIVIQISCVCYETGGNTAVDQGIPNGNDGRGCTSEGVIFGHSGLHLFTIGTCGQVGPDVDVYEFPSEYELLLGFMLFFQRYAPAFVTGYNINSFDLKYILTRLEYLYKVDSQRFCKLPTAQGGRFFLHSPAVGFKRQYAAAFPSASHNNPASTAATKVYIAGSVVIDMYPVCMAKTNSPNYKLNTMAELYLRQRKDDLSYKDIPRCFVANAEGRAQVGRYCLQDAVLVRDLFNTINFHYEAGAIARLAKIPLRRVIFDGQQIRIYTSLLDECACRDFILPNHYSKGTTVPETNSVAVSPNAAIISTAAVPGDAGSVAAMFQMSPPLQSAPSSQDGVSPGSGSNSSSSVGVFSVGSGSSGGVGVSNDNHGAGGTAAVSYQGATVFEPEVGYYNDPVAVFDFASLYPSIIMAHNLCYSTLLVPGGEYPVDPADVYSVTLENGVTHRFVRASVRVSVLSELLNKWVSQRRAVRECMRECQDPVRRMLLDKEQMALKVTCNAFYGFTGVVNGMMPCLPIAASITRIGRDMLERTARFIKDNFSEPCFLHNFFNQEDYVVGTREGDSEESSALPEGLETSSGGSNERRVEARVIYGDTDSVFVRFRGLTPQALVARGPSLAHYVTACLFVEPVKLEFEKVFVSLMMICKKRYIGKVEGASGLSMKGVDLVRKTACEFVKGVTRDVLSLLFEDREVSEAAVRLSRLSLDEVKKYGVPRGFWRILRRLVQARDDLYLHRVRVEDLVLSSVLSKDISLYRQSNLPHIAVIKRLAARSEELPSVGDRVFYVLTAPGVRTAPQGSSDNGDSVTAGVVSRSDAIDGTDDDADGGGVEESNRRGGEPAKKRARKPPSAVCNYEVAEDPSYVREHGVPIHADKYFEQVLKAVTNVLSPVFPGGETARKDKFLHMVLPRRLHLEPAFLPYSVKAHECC
T2 sequence (P09252 whole entry): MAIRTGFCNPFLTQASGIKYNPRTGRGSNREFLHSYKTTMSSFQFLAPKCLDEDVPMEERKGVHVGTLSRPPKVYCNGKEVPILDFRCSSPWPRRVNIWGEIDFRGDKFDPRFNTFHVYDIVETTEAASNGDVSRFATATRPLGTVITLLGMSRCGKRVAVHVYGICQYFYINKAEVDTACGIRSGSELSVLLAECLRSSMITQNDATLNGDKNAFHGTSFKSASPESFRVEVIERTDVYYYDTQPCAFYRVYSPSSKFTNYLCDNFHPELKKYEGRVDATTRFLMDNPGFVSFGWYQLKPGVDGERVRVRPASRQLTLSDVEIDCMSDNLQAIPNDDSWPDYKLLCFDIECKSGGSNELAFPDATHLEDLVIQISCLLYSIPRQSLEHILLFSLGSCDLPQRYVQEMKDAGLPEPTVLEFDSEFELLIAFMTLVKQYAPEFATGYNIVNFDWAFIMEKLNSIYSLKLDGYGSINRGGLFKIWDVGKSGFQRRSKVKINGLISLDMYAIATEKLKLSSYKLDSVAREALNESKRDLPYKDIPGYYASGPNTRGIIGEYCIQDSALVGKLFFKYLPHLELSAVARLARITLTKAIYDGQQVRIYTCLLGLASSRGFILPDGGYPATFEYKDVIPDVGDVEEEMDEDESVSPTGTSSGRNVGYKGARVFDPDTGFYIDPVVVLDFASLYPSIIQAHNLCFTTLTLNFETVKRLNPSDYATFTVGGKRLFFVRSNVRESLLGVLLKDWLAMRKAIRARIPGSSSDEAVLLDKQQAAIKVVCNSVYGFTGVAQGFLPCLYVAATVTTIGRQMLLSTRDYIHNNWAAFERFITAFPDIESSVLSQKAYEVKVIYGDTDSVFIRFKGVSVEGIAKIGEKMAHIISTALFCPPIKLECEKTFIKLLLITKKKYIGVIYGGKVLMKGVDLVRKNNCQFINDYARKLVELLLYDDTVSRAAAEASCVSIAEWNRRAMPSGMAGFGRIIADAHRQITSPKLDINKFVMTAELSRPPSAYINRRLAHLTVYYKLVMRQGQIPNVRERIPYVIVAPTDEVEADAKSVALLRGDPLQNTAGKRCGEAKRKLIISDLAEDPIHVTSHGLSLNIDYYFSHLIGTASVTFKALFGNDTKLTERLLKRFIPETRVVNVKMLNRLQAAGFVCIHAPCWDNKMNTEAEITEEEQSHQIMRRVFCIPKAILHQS

The EC50 is the concentration giving half of the maximal effect. As usually defined, the IC50 is the concentration needed to halve the response being measured. Regarding `Cn1nc(C(=O)NCc2ccc(Cl)cc2)c2cc(C[C@H]3COC(=O)N3)ccc21` [Compound 33], the EC50 is 110 nM in test [1] (setting [8]), 160 nM in test [2] (setting [9]) and 200 nM in test [3] (setting [10]). Also, the figures for the 50% inhibitory concentration (IC50) in test [4] (read-out: CMV^a (IC50)) and in test [5] (read-out: VZV^a (IC50)) were 78 nM and 35 nM, respectively.

Consider `Cn1nc(C(=O)NCc2ccc(Cl)cc2)c2cc(C[C@H]3CCC(=O)N3)ccc21` [Compound 34], for which the EC50 in test [1] (setting [8]) worked out at 240 nM; in test [2] (setting [9]) it was 330 nM; in test [3] (setting [10]), 220 nM. Besides, the IC50 in test [4] (read-out: CMV^a (IC50)) was found to be 67 nM; in test [5] (read-out: VZV^a (IC50)), 24 nM.

Regarding `Cn1nncc1COc1ccc2c(C(=O)NCc3ccc(Cl)cc3)nn(C)c2c1Cl` [Compound 10], the 50% effective concentration (EC50) is 460 nM in test [2] (setting [9]), 250 nM in test [6] and 590 nM in test [7]. For the same compound, the half-maximal inhibitory concentration (IC50) in test [4] (read-out: CMV^a (IC50)) came out at 41 nM; in test [5] (read-out: VZV^a (IC50)), 12 nM.

For `Cn1nc(C(=O)NCc2ccc(Cl)cc2)c2c3c(ccc21)C(N1CCOCC1)CC3` (stereo not shown) [Compound 17], the results for the concentration giving a half-maximal response (EC50) in test [1] (setting [8]), in test [2] (setting [9]) and in test [3] (setting [10]) were 350 nM, 1000 nM and 310 nM, respectively. Besides, the concentration for half-maximal inhibition (IC50) is 150 nM in test [4] (read-out: CMV^a (IC50)) and 14 nM in test [5] (read-out: VZV^a (IC50)).

As to `O=C(NCc1ccc(Cl)cc1)c1n[nH]c2c(Cl)c(N3CCn4nncc4C3)ccc12` [Compound 7], the EC50 in test [2] (setting [9]) turned out to be 120 nM; in test [6], 120 nM; in test [7], 200 nM. The results for the IC50 in test [4] (read-out: CMV^a (IC50)) and in test [5] (read-out: VZV^a (IC50)) were 22 nM and 5.1 nM, respectively.

As for `NCCn1nc(C(=O)NCc2ccc(Cl)cc2)c2ccc(NCc3cnns3)c(Cl)c21` [Compound 3], the concentration for a half-maximal effect (EC50) in test [1] (Human alphaherpesvirus 2, Vero, 72 h) worked out at 170 nM; in test [2] (Human betaherpesvirus 5, AD169, MRC5, read-out: CMV Cell^b (EC50), footnote b: assay described in Example 25), 71 nM; in test [3] (Human alphaherpesvirus 1, Vero, 72 h), 85 nM. The concentration for half-maximal inhibition (IC50) in test [4] (CMV^a (IC50)) is 9.6 nM; in test [5] (VZV^a (IC50)) it was 2.9 nM.

For `Cn1nc(C(=O)NCc2ccc(Cl)cc2)c2ccc(N3CCn4nncc4C3)c(Br)c21` [Compound 15], the EC50 was determined as 930 nM in test [2] (setting [9]), 850 nM in test [6] and 930 nM in test [7]. Also, the results for the IC50 in test [4] (read-out: CMV^a (IC50)) and in test [5] (read-out: VZV^a (IC50)) were 25 nM and 14 nM, respectively.

Consider `Cn1nc(C(=O)NCc2ccc(Cl)cc2)c2c(O)c(CN3CCOCC3)ccc21` [Compound 20], for which the values for the concentration for a half-maximal effect (EC50) in test [2] (setting [9]), in test [6] and in test [7] were over 9900 nM, over 40000 nM and over 40000 nM, respectively. The IC50 in test [4] (read-out: CMV^a (IC50)) amounted to 390 nM; in test [5] (read-out: VZV^a (IC50)) it was 66 nM.

The record behind these values is patent US20230066268A1, “INDAZOLE DERIVATIVES AND METHODS OF USE THEREOF FOR THE TREATMENT OF HERPES VIRUSES” (Merck Sharp & Dohme LLC, priority 2019, published 2023).
